Where two headings read alike, the source gives them in different places.
Assay: Pharmacokinetics in CD-1 mice (plasma concentrations, PK parameters)
Assay type: in vivo
Conditions: CD-1, mouse, plasma; for concentration at 5 min / concentration at 0.5 h / concentration at 1 h / concentration at 2 h / concentration at 4 h / concentration at 24 h: read-out: Concentration; for AUC(0-inf): read-out: AUCInf; for AUC(0-t): read-out: AUClast; for C0: read-out: C0; for MRT inf: read-out: MRTInf_obs; for Cmax: read-out: Cmax; for Tmax: read-out: Tmax
Method: Pharmacokinetics for I-127, I-172 and I-210 were determined in Sprague Dawley rats or CD-1 mice by dosing intravenous (IV), subcutaneous (SC) or per oral (PO) using facility SOPs and sampling plasma at required time points. Species, formulation, route of administration and time points samples are listed below for each compound.
Compounds were extracted from plasma, injected on reverse phase HPLC, eluted with a gradient from 5% to 95% acetonitrile in water and quantified by mass spectrometry with internal standard. Data are expressed in ng compound per mL of plasma.

[1] = iv, 2 mg/kg, mouse (CD1) iv 2 mg/kg, Mean
[2] = iv, 2 mg/kg, mouse (CD1) iv 2 mg/kg, individual Mouse 1-3
[3] = po, 30 mg/kg, mouse (CD1) po 30 mg/kg, Mean
[4] = po, 30 mg/kg, mouse (CD1) po 30 mg/kg, individual Mouse 4-6
[5] = sc, 30 mg/kg, mouse (CD1) sc 30 mg/kg, Mean
[6] = sc, 30 mg/kg, mouse (CD1) sc 30 mg/kg, individual Mouse 7-9

O=C1CCC(N2C(=O)c3cccc(NCCOCCOCCNCc4ccc(-n5cc(NC(=O)c6coc(-c7ccnc(NCC8CC8)c7)n6)c(C(F)F)n5)cc4)c3C2=O)C(=O)N1 (stereo not drawn) [I-210, 2-[2-(Cyclopropylmethylamino)-4-pyridyl]-N-[3-(difluoromethyl)-1-[4-[[2-[2-[2-[[2-(2,6-dioxo-3-piperidyl)-1,3-dioxoisoindolin-4-yl]amino]ethoxy]ethoxy]ethylamino]methyl]phenyl]pyrazol-4-yl]oxazole-4-carboxamide]
concentration at 5 min [1]: 589 ng/mL | concentration at 5 min [2]: 579 ng/mL | concentration at 0.25 h [1]: 390 ng/mL | concentration at 0.25 h [2]: 364 ng/mL | concentration at 0.5 h [1]: 283 ng/mL | concentration at 0.5 h [2]: 306 ng/mL | concentration at 1 h [1]: 193 ng/mL | concentration at 1 h [2]: 220 ng/mL | concentration at 2 h [1]: 90.8 ng/mL | concentration at 2 h [2]: 89.3 ng/mL | concentration at 4 h [1]: 26.1 ng/mL | concentration at 4 h [2]: 32.5 ng/mL | concentration at 8 h [1]: 5.19 ng/mL | concentration at 8 h [2]: 5.72 ng/mL | half-life [1]: 1.49 h | AUC(0-inf) [1]: 672 ng·h/mL | AUC(0-t) [1]: 661 ng·h/mL | C0 [1]: 726 ng/mL | MRT inf [1]: 1.5 h | half-life [2]: 1.52 h | AUC(0-inf) [2]: 714 ng·h/mL | AUC(0-t) [2]: 701 ng·h/mL | C0 [2]: 730 ng/mL | MRT inf [2]: 1.58 h | concentration at 0.25 h [3]: 30.8 ng/mL | concentration at 0.5 h [3]: 55 ng/mL | concentration at 1 h [3]: 72 ng/mL | concentration at 2 h [3]: 127 ng/mL | concentration at 2 h [4]: 177 ng/mL | concentration at 4 h [3]: 120 ng/mL | concentration at 4 h [4]: 92.5 ng/mL | concentration at 8 h [3]: 22.8 ng/mL | half-life [3]: 2.27 h | AUC(0-inf) [3]: 753 ng·h/mL | AUC(0-t) [3]: 676 ng·h/mL | Cmax [3]: 148 ng/mL | MRT inf [3]: 4.14 h | Tmax [3]: 3.33 h | half-life [4]: 2.59 h | AUC(0-inf) [4]: 917 ng·h/mL | AUC(0-t) [4]: 786 ng·h/mL | Cmax [4]: 177 ng/mL | MRT inf [4]: 4.22 h | Tmax [4]: 2 h | concentration at 0.25 h [5]: 79.3 ng/mL | concentration at 0.25 h [6]: 74.8 ng/mL | concentration at 0.5 h [5]: 85 ng/mL | concentration at 0.5 h [6]: 88.8 ng/mL | concentration at 1 h [5]: 97 ng/mL | concentration at 1 h [6]: 107 ng/mL | concentration at 2 h [5]: 95 ng/mL | concentration at 2 h [6]: 90 ng/mL | concentration at 4 h [5]: 98 ng/mL | concentration at 4 h [6]: 95.9 ng/mL | concentration at 8 h [5]: 43.5 ng/mL | concentration at 8 h [6]: 39.6 ng/mL | concentration at 24 h [5]: 2.85 ng/mL | concentration at 24 h [6]: 3.62 ng/mL | half-life [5]: 3.96 h | AUC(0-inf) [5]: 1040 ng·h/mL | AUC(0-t) [5]: 1020 ng·h/mL | Cmax [5]: 109 ng/mL | MRT inf [5]: 5.87 h

Reference: US10874743B2, “IRAK degraders and uses thereof” (Kymera Therapeutics, Inc., priority 2017, dated 2020)
